Experimental data as given in ChEMBL document CHEMBL5150035, “Mechanism-based inhibition of GH127/146 cysteine glycosidases by stereospecifically functionalized l-arabinofuranosides” (Bioorg Med Chem, 2022).
Active and inactive are the calls of the source. The calls are words filed in the database; no cut-off is given here.

Legend:
[1] = target: T1, Non-reducing end beta-L-arabinofuranosidase (Bifidobacterium longum subsp. longum) (UniProt E8MGH8); test: Inhibition of C-terminal-His6-tagged Bifidobacterium longum HypBA1 expressed in Escherichia coli C43 (DE3) cells […] using L-Araf3-Hyp as substrate preincubated with enzyme for 2 hrs followed by substrate addition and measured after 24 hrs by spectrophotometric analysis; settings: time 26.0 hrs
T1 sequence (whole entry): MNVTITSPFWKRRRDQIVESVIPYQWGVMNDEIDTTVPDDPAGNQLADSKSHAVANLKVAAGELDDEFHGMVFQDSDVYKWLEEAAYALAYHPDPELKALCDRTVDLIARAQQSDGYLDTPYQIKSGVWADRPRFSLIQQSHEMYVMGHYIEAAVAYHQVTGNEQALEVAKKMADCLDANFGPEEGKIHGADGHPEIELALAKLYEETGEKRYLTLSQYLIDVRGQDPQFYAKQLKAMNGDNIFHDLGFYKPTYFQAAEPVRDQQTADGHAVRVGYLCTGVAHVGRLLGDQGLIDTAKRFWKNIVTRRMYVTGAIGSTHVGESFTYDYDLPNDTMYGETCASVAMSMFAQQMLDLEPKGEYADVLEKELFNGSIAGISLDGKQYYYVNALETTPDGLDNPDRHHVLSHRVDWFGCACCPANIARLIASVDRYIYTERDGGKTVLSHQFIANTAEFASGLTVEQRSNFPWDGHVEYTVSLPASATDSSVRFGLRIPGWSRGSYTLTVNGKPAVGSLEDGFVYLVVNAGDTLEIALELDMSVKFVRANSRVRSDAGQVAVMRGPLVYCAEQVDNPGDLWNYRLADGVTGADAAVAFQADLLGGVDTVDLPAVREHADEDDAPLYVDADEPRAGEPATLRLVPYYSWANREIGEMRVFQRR

[2] = target: T1, Non-reducing end beta-L-arabinofuranosidase (Bifidobacterium longum subsp. longum); test: Inhibition of C-terminal-His6-tagged Bifidobacterium longum HypBA1 expressed in Escherichia coli C43 (DE3) cells assessed as reduction in pNP liberation using pNP-beta-L-Araf as substrate at 0.1 to 1 mM preincubated with enzyme for 2 hrs followed by substrate addition and measured after 24 hrs by spectrophotometric analysis; settings: dose 0.1-1 mM, time 26.0 hrs
[3] = Substrate activity at Bifidobacterium longum JCM 1217 HypBA1 homologue BLLJ_1848 at 10 mM incubated for 24 hrs in presence of TCEP by TLC analysis; assay type: ADME; settings: 10000 µM
[4] = Substrate activity at Bifidobacterium longum JCM 1217 HypBA1 homologue BLLJ_1848 at 10 mM incubated for 24 hrs in absence of TCEP by TLC analysis; assay type: ADME; settings: 10000 µM
[5] = Drug metabolism assessed as hydrolysed metabolite formation at 10 mM incubated for 24 hrs in presence of TCEP by TLC analysis; assay type: ADME; settings: 10000 µM
[6] = test system: Bifidobacterium longum; test: Inhibition of Bifidobacterium longum JCM 1217 HypBA1 homologue BLLJ_1848 using S3 as substrate preincubated with enzyme followed by substrate addition for 30 mins in absence of TCEP by HPLC-FLD analysis
[7] = test system: Bifidobacterium longum; test: Inhibition of Bifidobacterium longum JCM 1217 HypBA1 homologue BLLJ_1848 using S3 as substrate preincubated with enzyme followed by substrate addition for 30 mins in presence of TCEP by HPLC-FLD analysis

| SMILES | inhibition [1] | inhibition [2] | Activity [3] | Drug metabolism [5] | also measured |
| --- | --- | --- | --- | --- | --- |
| O=C(CCl)N[C@@H]1O[C@@H](CO)[C@H](O)[C@H]1O | Active |  |  |  |  |
| [N-]=[N+]=N[C@H]1O[C@@H](CO)[C@H](O)[C@H]1O |  |  | Active | Metabolite_Detected | Activity [4]: Active |
| [N-]=[N+]=N[C@@H]1O[C@@H](CO)[C@H](O)[C@H]1O |  |  | Active | Metabolite_Detected | inhibition [6]: Active; inhibition [7]: Active |

More lines, main results first:

| inhibition [1] | inhibition [2] | SMILES | Activity [3] | Drug metabolism [5] | also measured |
| --- | --- | --- | --- | --- | --- |
|  | Active | O=C(CBr)N[C@@H]1O[C@@H](CO)[C@H](O)[C@H]1O |  |  |  |
| Active |  | O=C(CCl)N[C@H]1O[C@@H](CO)[C@H](O)[C@H]1O |  |  |  |
|  | Active | O=C(CBr)N[C@H]1O[C@@H](CO)[C@H](O)[C@H]1O |  |  |  |
